Reference: patent US7235532B2, “Angiogenic agents and their uses” (Centre National de la Recherche Scientfique, priority 2000, dated 2007)

Key:
Sprague-Dawley rat = assay: vascular invasion in vivo of Matrigel placed under the skin
Text: In vivo, AcSDKP (SEQ ID NO: 1) induces, in a dose-dependent manner, the vascular invasion of Matrigel placed under the skin of the animal (Sprague-Dawley rat). In this experiment, AcSDKP (SEQ ID NO: 1) was mixed with the Matrigel before implantation. Seven days later, the animals were sacrificed and the Matrigel samples were taken and fixed in formol, and were the subject of a histological study. […] For the quantification, the vascular sections were counted on 10 consecutive fields (surface area =32 mm^2) from the richest zone.

[1] = system: chick embryo chorioallantoic membrane; assay: chick embryo chorioallantoic membrane (CAM) vascularization; type: in vivo
Protocol: FIGS. 2a, 2b and 2c: Effect of AcSDKP (SEQ ID NO: 1) and of analogues thereof on the vascularization of the chick embryo chorioallantoic membrane (CAM). FIG. 2A discloses SEQ ID NOS: 1 and 27, respectively, in order of appearance.
The following experiments were carried out on the chick embryo chorioallantoic membrane experimental model and the activity of AcSDKP (SEQ ID NO: 1) and of analogues thereof was tested on this model. […] The increase in the density of vascularization varies depending on the dose studied, with a maximum effect for AcSDKP (SEQ ID NO: 1) and AcSDKP-NH2 (SEQ ID NO: 27) at concentrations of between 10^−9 M and 10^−7 M (FIGS. 2a, 2b and 2c).

[2] = system: human umbilical cord vein endothelial cells (HUVEC); assay: growth of human umbilical cord vein endothelial cells, in vitro; type: cell-based
Text: (§1) FIGS. 1a, 1b and 1c: AcSDKP (SEQ ID NO: 1) stimulates the growth of bovine (BBC) and human (HUVEC and EA.hy926) endothelial cells, in vitro.
(§2) The mitogenic effect of AcSDKP (SEQ ID NO: 1) manifests itself at concentrations ranging between 10^−6 and 10^−11 M, with a maximum for 10^−9 M.

[3] = system: endothelial cells (EA.hy926); assay: formation of vascular tubes in Matrigel in vitro; type: cell-based, human; settings: 6 hours exposure
Protocol: FIG. 3: Effect of AcSDKP (SEQ ID NO: 1) on the formation of vascular tubes, in vitro, by endothelial cells (EA.hy926) in Matrigel.
The maximum stimulations, corresponding to an increase of 60% and 58%, respectively, were observed after exposure of the cells to the tetrapeptide for 6 hours.

[4] = system: immortalized HUVEC cell line (EA.hy926); assay: growth of immortalized HUVEC cell line, in vitro; type: cell-based, human
Text: as §1, §2

[5] = system: HUVEC human endothelial cells; assay: adhesion of HUVEC to extracellular matrix components, preliminary experiments; type: cell-based; settings: compared with marrow cell results
Text: It is clearly established that these interactions between endothelial cells and the extracellular matrix are determinant for the neovascularization and are involved at various steps of angiogenesis. Specifically, the extracellular matrix influences the proliferation and the migration of vascular endothelial cells, and also their ability to differentiate and to organize into capillaries in order to form new functional vessels suited to their tissue microenvironment.

total marrow cells = assay: adhesion of marrow cells to components of the extracellular matrix, in vitro; type: cell-based; settings: fibronectin, collagen IV and laminin
Text: The optimum concentration of AcSDKP (SEQ ID NO: 1) in this type of model is between 10^−6 and 10^−8 M.

[6] = system: endothelial cells originating from bovine brain capillaries (BBC); assay: growth of endothelial cells originating from bovine brain capillaries, in vitro; type: cell-based
Text: as §1, §2

Sprague-Dawley rats = assay: pedicled ventral skin flap model; type: in vivo, rat; settings: 5 μg/kg/injection s.c., after surgery then 5 times at 12 hour intervals
Text: Given the ability of angiogenic factors to stimulate, in vivo, the formation of new vessels in lesioned regions which are characterized by a deficiency in vascularization, we studied the effectiveness of AcSDKP (SEQ ID NO: 1) in promoting tissue lesion repair, using a skin flap model. In fact, the distal necrosis of skin flaps generally results from rupturing of the vascular network and therefore from an insufficiency of arterial flow, which poses considerable problems in the fields of plastic and reconstructive surgery.
Pedicled ventral skin flaps (6×6 cm) (left inguinal pedicle) were made in the Sprague-Dawley rats.
AcSDKP (SEQ ID NO: 1) was administered at the dose of 5 μg/kg/ injection (250 μl/injection) immediately after the surgical intervention, and then again 5 times at 12 hour intervals. […] From a macroscopic point of view, the decrease in necrosis is accompanied by the increase in the density of the vascularization over the internal surface of the flaps.

normal rats = assay: angiography of abdominal walls after injection into abdominal muscle; type: in vivo, rat
Protocol: In these experiments, AcSDKP (SEQ ID NO: 1) was injected into the abdominal muscle in normal rats (treatment twice a day for […]). […] It should be emphasized that this effect remains over time (observations made one month after the start of treatment).

FGFb: fibroblast growth factor used as comparison angiogenic factor
Number of vessels (% increase compared to control) (Sprague-Dawley rat; 50 ng/ml, Exp. 2): 297%

CH3CO-Ser-Asp-Lys-Pro-OH (Ac-SDKP-OH) [AcSDKP, tetrapeptide acetyl-Ser-Asp-Lys-Pro]
neovascularization of CAM [1]: significantly induced neovascularization
concentration of maximum mitogenic effect [2]: 10^−9 M
growth of endothelial cells ([2]; in vitro): significantly stimulates the growth
increase of total surface area of the vascular network compared to control (maximum stimulation) ([3]; 10^−9 M): 60%
increase of total surface area of the vascular network compared to control (maximum stimulation) ([3]; 10^−11 M): 58%
concentration of maximum mitogenic effect ([4]; EA.hy926): 10^−9 M
growth of endothelial cells ([4]; EA.hy926, in vitro): significantly stimulates the growth
Number of vessels (% increase compared to control) (Sprague-Dawley rat; 10^−5 M, Exp. 1): 60%
Number of vessels (% increase compared to control) (Sprague-Dawley rat; 10^−5 M, Exp. 2): 185%
Number of vessels (% increase compared to control) (Sprague-Dawley rat; 10^−6 M, Exp. 2): 121%
Number of vessels (% increase compared to control) (Sprague-Dawley rat; 10^−7 M, Exp. 1): 294%
Number of vessels (% increase compared to control) (Sprague-Dawley rat; 10^−7 M, Exp. 2): 118%
Number of vessels (% increase compared to control) (Sprague-Dawley rat; 10^−7 M, Exp. 3): 139%
Number of vessels (% increase compared to control) (Sprague-Dawley rat; 10^−8 M, Exp. 2): 223%
Number of vessels (% increase compared to control) (Sprague-Dawley rat; 10^−9 M, Exp. 1): 108%
Number of vessels (% increase compared to control) (Sprague-Dawley rat; 10^−9 M, Exp. 2): 61%
Number of vessels (% increase compared to control) (Sprague-Dawley rat; 10^−9 M, Exp. 3): 197%
vessels within the Matrigel compared to control Matrigel (Sprague-Dawley rat; mixed with Matrigel before implantation, 7 days): much greater number of vessels
adhesion to extracellular matrix components [5]: Comparable results
adhesion of marrow cells to extracellular matrix components (total marrow cells): increases the adhesion
concentration of maximum mitogenic effect [6]: 10^−9 M
growth of endothelial cells ([6]; in vitro): significantly stimulates the growth
increase in survival of the flaps compared to the controls (Sprague-Dawley rats): 10%
vascularization of abdominal walls (angiography) (normal rats; 5 μg/kg/injection into abdominal muscle, twice a day, sacrifice day 8): more developed vascularization
vascularization of abdominal walls (angiography) (normal rats; 50 μg/kg/injection into abdominal muscle): No significant modification of the vascularization

CH3CO-Ser-Asp-Lys-Pro-NH2 [AcSDKP-NH2]
neovascularization of CAM [1]: significantly induced neovascularization
